Experimental data from patent publication US20100184703A1, “USE OF PEPTIDE DERIVATIVES FOR TREATING PATHOLOGIES RESULTING FROM ISCHEMIA” (CHIESI FARMACEUTICI S.p.A., priority 2007, published 2010).

Test system: ANF, BNP, fibronectin, β-MHC, TNFR1, TNFR2, TNFα, caspase-2 mRNA
Assay: Quantitative RT-PCR of heart failure, fibrosis, hypertrophy and TNFα signaling markers after ischemia/reperfusion
Format: in vivo, rat
Settings: IR model
Protocol: In a second series of experiments, quantitative RT-PCR was performed to evaluate the level of expression of 2 markers of heart failure, Atrial Natriuretic Factor (ANF) and Brain Natriuretic Factor (BNP) as well as a marker of myocardial fibrosis, fibronectine, and myocardial hypertrophy, βMHC. […] B. mRNA expression levels of fibronectin a marker of fibrosis development, and β-Myosin Heavy Chain (β-MHC) a marker for hypertrophy development

[1] = increase in vehicle-injected animals

## Etanercept
[1]
  mRNA expression level of TNFα: not by Etanercept
  mRNA expression level of TNFα receptor 2 (TNFR2): not by Etanercept
  mRNA expression level of caspase-2: not by Etanercept
Marker of fibrosis development
  mRNA expression level of fibronectin: could only prevent fibrosis development
Marker of heart failure
  mRNA expression level of Atrial Natriuretic Factor (ANF): significant increase
  mRNA expression level of brain natriuretic peptide (BNP): significant increase
